experiment: gradient 5% acetonitrile 3 min, to 50% in 2 min, to 85% in 15 min, held 3 min, 100 µL/min; settings: column: Zorbax Extend-C18 2.1 x 50 mm; eluents: water / acetonitrile, 0.1% formic acid
In short: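 Over 3 months, pure standards in mixtures of ~100 molecules were run by HPLC coupled to a quadrupole time-of-flight mass spectrometer in positive and negative ionization mode. The column was a Zorbax Extend-C18 (2.1 × 50 mm, 1.8 μm) at 100 μL/min, eluted with water and acetonitrile each holding 0.1% formic acid, with 40 μL dead and 900 μL dwell volumes. Retention time was determined from adduct peaks chosen by software and checked manually.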

Point of comparison: `CC1CCN(CCCNC(=O)c2nnc(-c3ccc(S(=O)(=O)N4CCCC4)cc3)o2)CC1`, RP-LC retention time 642 s. Against it:
- O=C(Cn1c(=O)c(=O)n(Cc2ccccc2)c2ncccc21)NCCc1ccco1 — higher, 797 s
- CC(=O)c1ccc(N2CCN(C(=O)c3csc(-c4ccc(C)n4C)n3)CC2)cc1 — higher, 955 s
- Cc1ccc(NC(=O)Cn2c(=O)n(-c3ccc(F)cc3)c(=O)c3c2cc(C)n3C)c(C)c1 — higher, 879 s
- CN(Cc1ccccc1)C(=O)Cn1cnc2nc3c(cc2c1=O)CCCC3 — higher, 725 s
- CCn1nc(C)c(-c2cc(C(=O)NCC34CCC=C3N(C)C(=O)CC4)no2)c1C (stereo not drawn) — higher, 741 s
- COc1cccc(-c2cc(C(=O)N3CCOCC3)[nH]n2)c1 — higher, 658 s
- CC(C)c1nc(-n2cccc2)sc1C(=O)NCc1ccccc1 — higher, 1140 s
- CCCS(=O)(=O)N1CCC2(CC1)CN(Cc1ccc(OC)cc1)C2=O — higher, 787 s
- CC(C)NC(=O)c1ccc2c(c1)nc(CN1CCN(C(=O)NC3CCCCC3)CC1)n2C — lower, 577 s
- Cc1ccc(-n2c(N3CCCC(C(=O)NCc4ccc(F)cc4)C3)nc3ccsc3c2=O)cc1 (stereo not drawn) — higher, 919 s
- Cc1c(C(=O)C(=O)N2CCc3ccccc32)c2ccccc2n1C — higher, 902 s
- O=C(NC1CCCCC1)C1CCc2nc(N3CCCCC3)ncc2C1 (stereo not drawn) — higher, 723 s
- CCOCC(=O)N1CC(c2nc(-c3ccccc3)no2)C2(CCOCC2)C1 (stereo not drawn) — higher, 766 s
- Cc1ccc(S(=O)(=O)NC(=O)NN2CCCCCC2)cc1 — higher, 914 s
- NC(=O)C1CCN(C(=O)c2ccc(CN3C(=O)CCn4nc(-c5ccc(Cl)cc5)cc43)cc2)CC1 — higher, 713 s
- O=C(Nc1nc(-c2cccc([N+](=O)[O-])c2)cs1)c1cccc(Br)c1 — higher, 1170 s
- CCC(C)NC(=O)c1cnn(-c2ccc(-c3nc(C)no3)cn2)c1C (stereo not drawn) — higher, 821 s
- O=C1CC(c2nc(-c3ccccc3F)no2)CN1c1cccc(Cl)c1 (stereo not drawn) — higher, 977 s
- CC1CCN(C(=O)c2cc3c(s2)CCC(C(=O)NCCCN2CCOCC2)C3)CC1 (stereo not drawn) — lower, 542 s
- CCCCNC(=O)c1c(OCC(C)C)cc(=O)n2c1CCCCC2 — higher, 755 s
- CC(C)c1ccc(S(=O)(=O)c2ccc(=O)n(CC(=O)N3CCN(c4ccc(F)cc4)CC3)n2)cc1 — higher, 1000 s
- Cc1ccc(CNC(=O)c2cc3n(n2)CC(C)(C(=O)NC2CCCCC2)N(C)C3=O)cc1 (stereo not drawn) — lower, 605 s
- CCOc1ccc(CC(=O)NC(C)C(=O)Nc2nc3ccccc3[nH]2)cc1OCC (stereo not drawn) — higher, 668 s
- COc1ccccc1C(=O)NC1CCN(c2cc(-c3cccs3)[nH]n2)C1 (stereo not drawn) — higher, 717 s
- CCc1ccc(NC(=O)Cn2cnc3c(sc4nc(-c5ccccc5)ccc43)c2=O)cc1 — higher, 1100 s
- COc1ccc(NC(=O)Nc2ccc(-c3cn4ccc(C)nc4n3)cc2)cc1 — lower, 626 s
- COC(=O)c1c(C)[nH]c(C(=O)N2CCCC(C(=O)NC3CCCCC3)C2)c1C (stereo not drawn) — higher, 759 s
- CN(C)S(=O)(=O)c1ccc2c(c1)N(CC(=O)N1CCc3ccccc31)C(=O)C1CCCCN21 (stereo not drawn) — higher, 960 s
- COc1ccc(C(C)NC(=O)c2nnc(-c3ccc(S(=O)(=O)N(C)C)cc3)o2)cc1 (stereo not drawn) — higher, 893 s
- C[C@H]1CC2C3CCC4=CC(=O)C=C[C@]4(C)[C@@]3(Cl)[C@@H](O)C[C@]2(C)[C@@]1(O)C(=O)CO (stereo partly drawn) — higher, 832 s
- CSc1ccc(CNC(=O)c2c(C)oc3ccn(Cc4cccc(F)c4)c(=O)c23)cc1 — higher, 1110 s
- CCc1ccc(NC(=O)C2CCCN(c3nc4ccccc4nc3C(F)(F)F)C2)cc1 (stereo not drawn) — higher, 1230 s
- CCOc1ccc(CN2CCc3nc(N4CCN(c5ccccc5F)CC4)ncc3C2)cc1 — higher, 834 s
- CSc1ccc(CNC(=O)C2CCCN(c3ccnc(-c4ccc(F)cc4)n3)C2)cc1 (stereo not drawn) — higher, 728 s
- CC(=O)Nc1ccc(NC(=O)c2ccc3noc(-c4ccc(Cl)cc4)c3c2)cc1 — higher, 817 s
- Cc1cc(C(=O)Nc2cccc(-c3ccc(N4CCOCC4)nn3)c2)c(C)o1 — lower, 638 s
- Cc1ccccc1-c1nnc(CSc2nnc(NC(=O)Cc3ccc(F)cc3)s2)o1 — higher, 923 s
- COC(=O)c1c(C)[nH]c(C(=O)N2CCC(CC(=O)NCc3ccc(C)o3)CC2)c1C — higher, 702 s
- Cc1nnc(NC(=O)CSc2nnc(NC(=O)Nc3cccs3)s2)s1 — lower, 634 s
- COc1ccc(-c2cn3c(CC(=O)NCc4cccs4)csc3n2)cc1OC — higher, 678 s
- O=C(NCc1ccc2c(c1)OCO2)c1nnc2n(c1=O)CCN2c1ccc(F)cc1 — higher, 683 s
- Cn1cc(CN2C[C@@H](CO)[C@H](NC(=O)C3CCC3)C2)c2ccccc21 — lower, 615 s
- Cc1cc2c(cc1CNC(=O)Cn1c(C(F)(F)F)nc3ccccc31)OCCCO2 — higher, 849 s
- O=C(NCCCn1cccc1)c1ccc(F)c(F)c1 — higher, 791 s
- CCCN1CCN(C(=O)C2Cc3cc(S(=O)(=O)N4CCCCC4)ccc3N2C(C)=O)CC1 (stereo not drawn) — lower, 630 s
- CNC(=O)c1ccc(-c2nc3cc(NS(=O)(=O)c4cc(Cl)ccc4OC)ccc3n2C)cc1 — higher, 671 s
- CCOc1ccccc1NC(=O)N1CCCC1c1c(C)noc1C (stereo not drawn) — higher, 833 s
- CCn1cc(C(=O)Nc2cc(OC)cc(OC)c2)c(S(=O)(=O)N2CCSCC2)n1 — higher, 992 s
- CC(=O)N(C)c1ccc(NC(=O)c2c(-c3ccccc3Cl)noc2C)cc1 — higher, 774 s
- Cc1cc(N2CCC(C)CC2)n2nc(CN3CCN(c4ccccn4)CC3)nc2n1 — lower, 599 s
- Cc1ccc(F)c(-n2nnc(C(=O)O)c2-c2cccnc2)c1 — the same, 642 s
- Cc1ccccc1OCc1nc(-c2ccc3ncn(C(C)C)c3c2)no1 — higher, 839 s
- Cc1ccc(N2CCC(NS(=O)(=O)c3ccccc3F)C2=O)cc1 (stereo not drawn) — higher, 894 s
- Nc1ccc(SCc2nc3cccc4c3n2CCC4)cc1 — higher, 662 s
- COc1cccc(NC(=O)Cc2csc3nc(-c4ccc(OC)c(OC)c4)cn23)c1 — higher, 780 s
- CCCCc1ccc(Nc2ncccc2S(N)(=O)=O)cc1 — higher, 1060 s
- CCN1c2ccccc2C(=O)NC12CCN(C(=O)Nc1ccccc1F)CC2 — higher, 748 s
- CCCN1C(=O)c2c(C(=O)N3CCOCC3)ncn2CC1(C)C(=O)NCc1ccc(F)cc1 (stereo not drawn) — lower, 618 s
- Cn1cccc1C(=O)C(=O)Nc1cccc2c1CCCC2 — higher, 928 s
- COc1ccc(-c2c(C)noc2NC(C)=O)cc1S(=O)(=O)Nc1ccc(F)c(Cl)c1 — higher, 803 s
- CCOC(=O)C1=NN(c2ccccc2)CC1C(=O)OC (stereo not drawn) — higher, 917 s
- CC1CCC(C(C)C)C(NC(=O)c2ccncc2)C1 (stereo not drawn) — higher, 894 s
- COc1ccc(-c2noc(N3CCC(C(=O)N4CCN(C5CCCCC5)CC4)CC3)n2)cc1OC — lower, 632 s
- CC1CCN(c2cc(-c3noc(C(=O)N4CCc5ccccc5C4)n3)ccn2)CC1 — higher, 1010 s
- Cc1cc(C)cc(NC(=O)Nc2nccn(-c3cc(Cl)ccc3C)c2=O)c1 — higher, 1150 s
- O=C(c1ccc(F)c(Cl)c1)N1CCN(c2cc(-c3ccc(F)cc3)[nH]n2)CC1 — higher, 894 s
- CCn1nc(CNC(=O)c2cc(C)cc(C)c2)c2ccccc21 — higher, 938 s
- CC(C)N1CCn2c(nc3cc(C(=O)NCc4ccc(Br)cc4)ccc32)C1=O — higher, 761 s
- Cc1ccc(-c2nn3c(N4CCN(c5ccccn5)CC4)cc(C)nc3c2C)cc1 — lower, 613 s
- CCn1cc(-c2nc(C(=O)Nc3cccc(C(=O)OC)c3)cs2)c2cccnc21 — higher, 1060 s
- COCCCN(CC(=O)N1CCNCC1)C(=O)c1ccc(F)c(Cl)c1 — lower, 596 s
- COc1cccc(CNC(=O)c2ccc(CN3CCN(C(C)C)C(=O)C3=O)cc2)c1 — higher, 693 s
- CCOC(=O)CCNC(=O)N1CCCN(C)c2ccccc21 — lower, 623 s
- CSc1ccc(-c2nc3cnccn3c2Nc2ccc3c(c2)OCCO3)cc1 — higher, 863 s
- Cc1noc(C)c1-c1ccc(S(=O)(=O)NC(C)C)cc1 — higher, 812 s
- Cc1ccc(Cn2c(=O)c3sccc3n(Cc3nc(-c4ccc(C)cc4)no3)c2=O)cc1 — higher, 1140 s
- CCCc1nc(NCc2cccnc2)ncc1C(=O)O — lower, 569 s
- CCOC(=O)c1[nH]c(C)c(C(=O)N2CCC(CC(=O)NC3CC3)CC2)c1C — lower, 628 s
- Cc1c(C(=O)NCCCN2CCOCC2)sc2ncnc(N3CCN(c4ccccn4)CC3)c12 — lower, 558 s
- Cc1ccccc1-c1noc(CN2N=NC3C(=O)N(c4ccc(C(C)C)cc4)C(=O)C32)n1 (stereo not drawn) — higher, 1150 s
- Cc1ccc(CNC(=O)c2sc(Nc3ccc(F)cn3)nc2C)cc1 — higher, 859 s
- COC(=O)c1ccc(NC(=O)CSc2nnc3c4cc(-c5ccccc5)nn4ccn23)cc1 — higher, 1060 s
- Cc1ccc(CNC(=O)C2CCCN(c3ncnc4c3oc3ccccc34)C2)cc1 (stereo not drawn) — higher, 807 s
- c1cc2c(cc1-c1noc(C3CCC3)n1)ncn2CCN1CCCC1 — lower, 596 s
- CCOc1ccccc1-c1csc(NC(=O)c2sc(COc3cc(C)ccc3C)nc2C)n1 — higher, 1030 s
- CCc1ccccc1NC(=O)C1CCN(S(=O)(=O)c2c(C)[nH]c(C)c2C(=O)N2CCCC2)CC1 — higher, 726 s
- CN(C)c1ccc(/C=C2\C=Cc3ccccc32)cc1 — higher, 1240 s

— the METLIN SMRT retention time set (Domingo-Almenara et al. 2019)
